Experimental data from the supplement of paper PMC11281043.

What was measured:
Danio rerio embryo/larva [1] = experiment: max % larvae dead across tested concentrations; max tested concentration (log10 uM): 1.60206; higher = more toxic; extreme values may be limits of the assay; conditions: exposure: 6-8 hpf to 5 dpf, scored at 6 dpf
Danio rerio embryo/larva [2] = experiment: max % larvae with any abnormality across tested concentrations; max tested concentration (log10 uM): 1.60206; higher = more toxic; extreme values may be limits of the assay; conditions: exposure: 6-8 hpf to 5 dpf, scored at 6 dpf
Danio rerio embryo/larva [3] = experiment: max % larvae unhatched across tested concentrations; max tested concentration (log10 uM): 1.60206; higher = more toxic; conditions: exposure: 6-8 hpf to 5 dpf, scored at 6 dpf
Danio rerio embryo/larva [4] = experiment: BMC edema; higher = less potent; conditions: exposure: 6-8 hpf to 5 dpf, scored at 6 dpf
How it was run: (§1)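 Two blinded assessors scored mortality (as % dead), hatching and malformations (as % of living larvae affected), without normalisation. The larvae came from wild-type zebrafish embryos with chorions, placed singly in wells of 200 μL 10% Hanks' at 6–8 hpf, given an 8-point half-log DMSO series (0.4% DMSO final), kept sealed at 26 °C with n = 6 per concentration, rinsed at 5 dpf and scored at 6 dpf. Benchmark concentration was fitted in tcpl, with bounded models chosen by lowest AIC. A benchmark response of 1.349 × baseline standard deviation was used.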

Danio rerio embryo/larva [5] = experiment: max % larvae dead across tested concentrations; max tested concentration (log10 uM): 2; higher = more toxic; extreme values may be limits of the assay; conditions: exposure: 6-8 hpf to 5 dpf, scored at 6 dpf
Danio rerio embryo/larva [6] = experiment: BMC swim bladder non-inflation; higher = less potent; conditions: exposure: 6-8 hpf to 5 dpf, scored at 6 dpf
How it was run: as §1

Danio rerio embryo/larva [7] = experiment: BMC spinal defects; higher = less potent; conditions: max tested concentration (log10 uM): 2; exposure: 6-8 hpf to 5 dpf, scored at 6 dpf
Experimental: (§2)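 Zebrafish embryos (with chorion) were exposed from 6-8 hpf to each PFAS (8-point half-log series, top concentration up to 100 uM, 0.4% DMSO, sealed plates, 26 C; n = 6 embryos per concentration), rinsed at 5 dpf and scored at 6 dpf by two blinded observers for mortality, hatching and malformations. Endpoint scores are the % of living larvae affected (dead larvae excluded; […]). Curves were fitted with tcpl (cutoff 16%), and the BMC is the concentration at a benchmark response of 21.6%.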

Danio rerio embryo/larva [8] = experiment: max % larvae unhatched across tested concentrations; max tested concentration (log10 uM): 2; higher = more toxic; conditions: exposure: 6-8 hpf to 5 dpf, scored at 6 dpf
Danio rerio embryo/larva [9] = experiment: BMC abnormal position; higher = less potent; conditions: exposure: 6-8 hpf to 5 dpf, scored at 6 dpf
Experimental: as §2

Danio rerio embryo/larva [10] = experiment: BMC mortality; max tested concentration (log10 uM): 2; higher = less potent; conditions: exposure: 6-8 hpf to 5 dpf, scored at 6 dpf
Experimental: as §2

Danio rerio embryo/larva [11] = experiment: BMC any abnormality; max tested concentration (log10 uM): 2; higher = less potent; conditions: exposure: 6-8 hpf to 5 dpf, scored at 6 dpf
How it was run: as §1

Danio rerio embryo/larva [12] = experiment: max % larvae with any abnormality across tested concentrations; max tested concentration (log10 uM): 2; higher = more toxic; extreme values may be limits of the assay; conditions: exposure: 6-8 hpf to 5 dpf, scored at 6 dpf
Danio rerio embryo/larva [13] = experiment: max % larvae with any abnormality across tested concentrations; max tested concentration (log10 uM): 1.90309; higher = more toxic; extreme values may be limits of the assay; conditions: exposure: 6-8 hpf to 5 dpf, scored at 6 dpf
Danio rerio embryo/larva [14] = experiment: BMC blood pooling; max tested concentration (log10 uM): 1.90309; higher = less potent; conditions: exposure: 6-8 hpf to 5 dpf, scored at 6 dpf
Experimental: as §2

Danio rerio embryo/larva [15] = experiment: BMC craniofacial defects; higher = less potent; conditions: exposure: 6-8 hpf to 5 dpf, scored at 6 dpf
Experimental: as §2

Danio rerio embryo/larva [16] = experiment: BMC tail defects; max tested concentration (log10 uM): 1.90309; higher = less potent; conditions: exposure: 6-8 hpf to 5 dpf, scored at 6 dpf
Experimental: as §2

Danio rerio embryo/larva [17] = experiment: BMC any abnormality; max tested concentration (log10 uM): 1.90309; higher = less potent; conditions: exposure: 6-8 hpf to 5 dpf, scored at 6 dpf
Experimental: as §2

Danio rerio embryo/larva [18] = experiment: max % larvae unhatched across tested concentrations; max tested concentration (log10 uM): 1.90309; higher = more toxic; conditions: exposure: 6-8 hpf to 5 dpf, scored at 6 dpf
Danio rerio embryo/larva [19] = experiment: max % larvae with any abnormality across tested concentrations; max tested concentration (log10 uM): 1.30103; higher = more toxic; extreme values may be limits of the assay; conditions: exposure: 6-8 hpf to 5 dpf, scored at 6 dpf
Danio rerio embryo/larva [20] = experiment: max % larvae unhatched across tested concentrations; max tested concentration (log10 uM): 1.30103; higher = more toxic; conditions: exposure: 6-8 hpf to 5 dpf, scored at 6 dpf
Danio rerio embryo/larva [21] = experiment: max % larvae dead across tested concentrations; max tested concentration (log10 uM): 1.30103; higher = more toxic; extreme values may be limits of the assay; conditions: exposure: 6-8 hpf to 5 dpf, scored at 6 dpf
Danio rerio embryo/larva [22] = experiment: BMC blood pooling; max tested concentration (log10 uM): 2; higher = less potent; conditions: exposure: 6-8 hpf to 5 dpf, scored at 6 dpf
Experimental: as §2

Danio rerio embryo/larva [23] = experiment: BMC tail defects; max tested concentration (log10 uM): 2; higher = less potent; conditions: exposure: 6-8 hpf to 5 dpf, scored at 6 dpf
Experimental: as §2

[24] = max tested concentration (log10 uM): 2
[25] = max tested concentration (log10 uM): 1.90309

Structure (SMILES): CO[Si](C)(CCC(F)(F)C(F)(F)C(F)(F)C(F)(F)C(F)(F)C(F)(F)F)OC [Dimethoxymethyl((perfluorohexyl)ethyl)silane]
- max % larvae dead across tested concentrations (Danio rerio embryo/larva [1]): 0%
- max % larvae (Danio rerio embryo/larva [2]): 0%
- max % larvae unhatched across tested concentrations (Danio rerio embryo/larva [3]): 0%

Structure (SMILES): COC(=O)C(F)(F)C(F)(F)OC(F)(C(F)(F)F)C(F)(F)OC(F)=C(F)F (stereo not given) [Methyl perfluoro(3-(1-ethenyloxypropan-2-yloxy)propanoate)]
- max % larvae dead across tested concentrations (Danio rerio embryo/larva [1]): 0%
- max % larvae (Danio rerio embryo/larva [2]): 8.33%
- max % larvae unhatched across tested concentrations (Danio rerio embryo/larva [3]): 0%

Structure (SMILES): O=S(=O)(Cl)C(F)(F)C(F)(F)C(F)(F)C(F)(F)C(F)(F)C(F)(F)C(F)(F)C(F)(F)F [Perfluoro-1-octanesulfonyl chloride]
- BMC edema (Danio rerio embryo/larva [4]; [24]): 29.4 µM
- max % larvae dead across tested concentrations (Danio rerio embryo/larva [5]): 83.3%
- BMC swim bladder non-inflation (Danio rerio embryo/larva [6]; [24]): 10.4 µM
- BMC spinal defects (Danio rerio embryo/larva [7]): 95.8 µM
- max % larvae unhatched across tested concentrations (Danio rerio embryo/larva [8]): 0%
- BMC abnormal position (Danio rerio embryo/larva [9]; [24]): 92 µM
- BMC mortality (Danio rerio embryo/larva [10]): 77.9 µM
- BMC any abnormality (Danio rerio embryo/larva [11]): 10.4 µM
- max % larvae (Danio rerio embryo/larva [12]): 100%

Structure (SMILES): O=S(=O)(O)C(F)(F)C(F)(F)C(F)(F)C(F)(F)C(F)(F)C(F)(F)C(F)(F)F [Perfluoroheptanesulfonic acid]
- max % larvae (Danio rerio embryo/larva [13]): 100%
- BMC blood pooling (Danio rerio embryo/larva [14]): 61 µM
- BMC edema (Danio rerio embryo/larva [4]; [25]): 18.5 µM
- BMC craniofacial defects (Danio rerio embryo/larva [15]; [25]): 18.1 µM
- BMC tail defects (Danio rerio embryo/larva [16]): 27 µM
- BMC any abnormality (Danio rerio embryo/larva [17]): 15.6 µM
- BMC swim bladder non-inflation (Danio rerio embryo/larva [6]; [25]): 15.6 µM
- max % larvae unhatched across tested concentrations (Danio rerio embryo/larva [18]): 0%
- BMC abnormal position (Danio rerio embryo/larva [9]; [25]): 17.7 µM

Structure (SMILES): O=C(O)C(F)(F)C(F)(F)C(F)(F)C(F)(F)C(F)(F)C(F)(F)C(F)(F)C(F)(F)C(F)(F)C(F)(F)C(F)(F)C(F)(F)C(F)(F)F [Perfluorotetradecanoic acid]
- max % larvae (Danio rerio embryo/larva [19]): 12.5%
- max % larvae unhatched across tested concentrations (Danio rerio embryo/larva [20]): 0%
- max % larvae dead across tested concentrations (Danio rerio embryo/larva [21]): 0%

Structure (SMILES): O=C(O)C(F)(F)C(F)(F)C(F)(F)C(F)(F)C(F)(F)C(F)(F)C(F)(F)C(F)(F)C(F)(F)C(F)(F)C(F)(F)C(F)(F)F [Perfluorotridecanoic acid]
- max % larvae (Danio rerio embryo/larva [19]): 16.7%
- max % larvae unhatched across tested concentrations (Danio rerio embryo/larva [20]): 0%
- max % larvae dead across tested concentrations (Danio rerio embryo/larva [21]): 0%

Structure (SMILES): O=S(=O)(O)C(F)(F)C(F)(F)C(F)(F)C(F)(F)C(F)(F)C(F)(F)C(F)(F)C(F)(F)F [Potassium perfluorooctanesulfonate]
- BMC edema (Danio rerio embryo/larva [4]; [24]): 4.65 µM
- BMC craniofacial defects (Danio rerio embryo/larva [15]; [24]): 8.25 µM
- BMC swim bladder non-inflation (Danio rerio embryo/larva [6]; [24]): 2.81 µM
- BMC spinal defects (Danio rerio embryo/larva [7]): 26 µM
- max % larvae unhatched across tested concentrations (Danio rerio embryo/larva [8]): 0%
- BMC blood pooling (Danio rerio embryo/larva [22]): 10.5 µM
- BMC abnormal position (Danio rerio embryo/larva [9]; [24]): 3.99 µM
- BMC any abnormality (Danio rerio embryo/larva [11]): 2.77 µM
- BMC tail defects (Danio rerio embryo/larva [23]): 27.8 µM
- max % larvae (Danio rerio embryo/larva [12]): 100%
